Data set [1] relates to A549. In words: Cytotoxicity against human A549 cells after 48 hrs by MTT assay. Type of data set: functional, cell-based. Particulars: A549, 48 h. (In general: Formazan colour is commonly taken as a measure of viable cells.)
In data set [2] the test system is MRC5. The data set can be described thus: Cytotoxicity against human MRC5 cells after 48 hrs by MTT assay. Particulars: MRC5, 48 h. The format is cell-based.
Data set [3] is described as follows: Cytotoxicity against human MRC5 cells assessed as cell survival at 10 to 320 uM after 48 hrs by MTT assay. The format is cell-based. To be noted: read-out: Survival.
Data set [4] has as its system A549. In words: Cytotoxicity against human A549 cells at 300 uM after 48 hrs by MTT assay. Type of data set: functional.
Data set [5] is described as follows: Cytotoxicity against human VH10 cells at 1 mM after 48 hrs by MTT assay. Type of data set: cell-based. To be noted: vh10, 48 h, 1000 µM.
The test system of data set [6] is MCF10. In words: Cytotoxicity against human MCF10 cells after 48 hrs by MTT assay. Type of data set: cell-based. To be noted: MCF10, 48 h.
A short description of data set [7]: Cytotoxicity against human MCF10 cells assessed as cell survival at 264 uM after 48 hrs by MTT assay. Type of data set: cell-based. Particulars: read-out: Survival.
Data set [8] concerns UACC-62. In words: Cytotoxicity against human UACC62 cells after 48 hrs by MTT assay. Type of data set: functional, cell-based. To be noted: UACC-62, 48 h.
Data set [9] can be described thus: Cytotoxicity against human VH10 cells after 48 hrs by MTT assay. The format is cell-based. To be noted: VH10, 48 h.
Data set [10] deals with MCF7. In words: Cytotoxicity against human MCF7 cells after 48 hrs by MTT assay. Particulars: MCF7, 48 h. The format is functional, cell-based.
In data set [11] the test system is UACC-62. In words: Cytotoxicity against human UACC62 cells assessed as cell viability at 1 mM after 48 hrs by MTT assay. Particulars: UACC-62, 48 h, read-out: Activity. Type of data set: functional.

The source of these data is ChEMBL document CHEMBL3085740, “Aziridines from alkenyl-β-D-galactopyranoside derivatives: Stereoselective synthesis and in vitro selective anticancer activity” (Eur J Med Chem, 2013).

The term IC50 denotes the concentration that inhibits the measured activity by half.

The structures appear in SMILES notation.

For the compound `Cc1ccc(S(=O)(=O)N2C(C)C2CO[C@@H]2O[C@@H]3CO[C@H](c4ccccc4)O[C@@H]3[C@H](O)[C@H]2O)cc1` (stereo partly drawn), the results for the IC50 in data set [1] and in data set [2] were 351 µM and 544 µM, respectively.
In the case of `CCCCCCCCCCCCCCC(CO[C@@H]1O[C@@H]2CO[C@H](c3ccccc3)O[C@@H]2[C@H](OCc2ccccc2)[C@H]1OCc1ccccc1)(CN1CCN(CCO)CC1)NS(=O)(=O)c1ccc(C)cc1` (stereo partly drawn), the IC50 in [1] came out at 15 µM; in data set [2], 2 µM.
For `CCCCCCCCCCCCNCC(C)(CO[C@@H]1O[C@@H]2CO[C@H](c3ccccc3)O[C@@H]2[C@H](OCc2ccccc2)[C@H]1OCc1ccccc1)NS(=O)(=O)c1ccc(C)cc1` (stereo partly drawn), in that order: 492 µM and 156 µM.
Turning to `CCCCCCCCCCCCCCC1(CO[C@@H]2O[C@@H]3CO[C@H](c4ccccc4)O[C@@H]3[C@H](OCc3ccccc3)[C@H]2OCc2ccccc2)CN1S(=O)(=O)c1ccc(C)cc1` (stereo partly drawn), the IC50 in data set [1] and in data set [2] was 1000 µM in each case.
Turning to `CCCCCCCCCC1(CO[C@@H]2O[C@@H]3CO[C@H](c4ccccc4)O[C@@H]3[C@H](OCc3ccccc3)[C@H]2OCc2ccccc2)CN1S(=O)(=O)c1ccc(C)cc1` (stereo partly drawn), the viability at 48 h, up to 320 µM in data set [3] is 90%. The IC50 is 154 µM in data set [1] and 575 µM in [2]. The same compound yielded an Activity in [4] of 30%.
Take `CCCC1(CO[C@@H]2O[C@@H]3CO[C@H](c4ccccc4)O[C@@H]3[C@H](OCc3ccccc3)[C@H]2OCc2ccccc2)CN1S(=O)(=O)c1ccc(C)cc1` (stereo partly drawn): the results for the IC50 in data set [1] and in data set [2] were 579 µM and 793 µM, respectively.
For `Cc1ccc(S(=O)(=O)N2CC2(CO[C@@H]2O[C@@H]3CO[C@H](c4ccccc4)O[C@@H]3[C@H](OCc3ccccc3)[C@H]2OCc2ccccc2)c2ccccc2)cc1` (stereo partly drawn), in that order: 599 µM and 570 µM.
On to `Cc1ccc(S(=O)(=O)N2C(C)C2CO[C@@H]2O[C@@H]3CO[C@H](c4ccccc4)O[C@@H]3[C@H](OCc3ccccc3)[C@H]2OCc2ccccc2)cc1` (stereo partly drawn), for which the results for the concentration for half-maximal inhibition (IC50) in [1] and in [2] were 804 µM and over 1000 µM, respectively.
For the compound `CCCCCCCC1C(CO[C@@H]2O[C@@H]3CO[C@H](c4ccccc4)O[C@@H]3[C@H](OCc3ccccc3)[C@H]2O)N1S(=O)(=O)c1ccc(C)cc1` (stereo partly drawn), the viability at 48 h, up to 320 µM in data set [3] was determined as 90%. In addition, the IC50 in data set [1] is 235 µM; in data set [2] it was over 1000 µM.
As for `Cc1ccc(S(=O)(=O)N2C(CO[C@@H]3O[C@@H]4CO[C@H](c5ccccc5)O[C@@H]4[C@H](OCc4ccccc4)[C@H]3OCc3ccccc3)C2(C)C)cc1` (stereo partly drawn), the IC50 in [1] and in data set [2] was over 1000 µM in each case.
Regarding `Cc1ccc(S(=O)(=O)N2CC2(C)CO[C@@H]2O[C@@H]3CO[C@H](c4ccccc4)O[C@@H]3[C@H](O)[C@H]2O)cc1` (stereo partly drawn), the IC50 in data set [1] amounted to 154 µM; in data set [2], 312 µM.
For `Cc1ccc(S(=O)(=O)N2C(CO[C@@H]3O[C@@H]4CO[C@H](c5ccccc5)O[C@@H]4[C@H](O)[C@H]3O)C2(C)C)cc1` (stereo partly drawn), in that order: 389 µM and 567 µM.
Take `Cc1ccc(S(=O)(=O)N2CC2CO[C@@H]2O[C@@H]3CO[C@H](c4ccccc4)O[C@@H]3[C@H](OCc3ccccc3)[C@H]2OCc2ccccc2)cc1` (stereo partly drawn): the viability at 48 h, up to 320 µM in data set [3] was 90%. For the same compound, the results for the 50% inhibitory concentration (IC50) in [1] and in data set [2] were 73 µM and 183 µM, respectively.
For the compound `Cc1ccc(S(=O)(=O)N2CC2(C)CO[C@@H]2O[C@@H]3CO[C@H](c4ccccc4)O[C@@H]3[C@H](OCc3ccccc3)[C@H]2OCc2ccccc2)cc1` (stereo partly drawn), the figures for the Activity entry in data set [5] and in data set [4] were “Non-toxic” and 30%, respectively. In addition, the IC50 in data set [6] was 567 µM; in data set [8], 196 µM; in data set [1], 153 µM; in data set [2], over 1000 µM; in data set [9] it was over 1000 µM; in data set [10], 12 µM. In data set [7], the viability at 48 h, 264 µM was found to be 80%. The viability at 48 h, up to 320 µM in data set [3] was 90%. The viability at 1000 µM in data set [11] stood at 10%.
In the case of `O=c1[nH]cc(F)c(=O)[nH]1` [FLUOROURACIL], the IC50 in data set [8] is 264 µM; in data set [9], over 1000 µM.
